Legend:
[1] = target: T1, KRAS-G12C/SOS1 (Homo sapiens, UniProt Q07889); test: KRAS-G12C/SOS1 binding assay (HTRF); settings: inhibition of KRAS-G12C/SOS1 binding
T1 construct: purchased Cisbio 63ADKOOOCB16PEG
T1 sequence (Q07889 1-1333): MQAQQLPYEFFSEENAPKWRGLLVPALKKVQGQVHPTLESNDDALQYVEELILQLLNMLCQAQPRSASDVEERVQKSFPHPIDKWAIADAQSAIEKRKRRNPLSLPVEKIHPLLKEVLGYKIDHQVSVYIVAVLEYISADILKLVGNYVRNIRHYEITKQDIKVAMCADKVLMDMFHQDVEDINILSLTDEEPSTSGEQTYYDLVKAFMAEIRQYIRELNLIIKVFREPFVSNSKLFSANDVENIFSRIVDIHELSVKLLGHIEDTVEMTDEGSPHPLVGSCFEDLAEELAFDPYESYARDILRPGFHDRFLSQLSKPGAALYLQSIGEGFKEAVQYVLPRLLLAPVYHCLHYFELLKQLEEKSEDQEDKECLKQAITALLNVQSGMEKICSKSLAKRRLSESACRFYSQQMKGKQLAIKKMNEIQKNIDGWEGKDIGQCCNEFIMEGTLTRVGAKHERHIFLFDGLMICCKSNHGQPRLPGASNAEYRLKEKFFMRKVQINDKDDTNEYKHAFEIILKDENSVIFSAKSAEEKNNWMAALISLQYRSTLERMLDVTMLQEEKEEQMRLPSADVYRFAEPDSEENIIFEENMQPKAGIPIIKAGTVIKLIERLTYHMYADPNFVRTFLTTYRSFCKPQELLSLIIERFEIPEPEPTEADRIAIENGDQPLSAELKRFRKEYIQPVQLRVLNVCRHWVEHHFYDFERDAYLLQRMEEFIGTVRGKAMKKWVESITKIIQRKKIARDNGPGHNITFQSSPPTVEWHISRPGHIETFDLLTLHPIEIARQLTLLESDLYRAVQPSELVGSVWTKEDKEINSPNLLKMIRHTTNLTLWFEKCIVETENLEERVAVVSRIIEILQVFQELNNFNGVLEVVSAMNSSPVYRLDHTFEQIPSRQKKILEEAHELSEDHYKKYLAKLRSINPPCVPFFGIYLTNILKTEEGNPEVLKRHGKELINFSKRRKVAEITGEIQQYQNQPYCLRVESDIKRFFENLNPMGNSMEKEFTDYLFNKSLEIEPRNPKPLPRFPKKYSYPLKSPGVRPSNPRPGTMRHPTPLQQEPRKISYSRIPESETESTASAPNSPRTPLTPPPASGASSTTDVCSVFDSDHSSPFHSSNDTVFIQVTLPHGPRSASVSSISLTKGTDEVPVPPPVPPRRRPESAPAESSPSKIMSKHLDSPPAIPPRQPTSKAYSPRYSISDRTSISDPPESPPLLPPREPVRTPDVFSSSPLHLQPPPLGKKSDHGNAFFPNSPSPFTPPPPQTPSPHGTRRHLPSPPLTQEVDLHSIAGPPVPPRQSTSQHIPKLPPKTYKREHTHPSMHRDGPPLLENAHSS
Protocol: The following method was used to determine the extent of inhibition of KRAS-G12C/SOS1 binding by the preferred compounds of the present invention under in vitro conditions. In this method, the competitive inhibition of KRAS-G12C/SOS1 binding by the preferred compounds was assayed by the homogeneous time-resolved fluorescence (HTRF) technology using the KRAS-G12C/SOS1 binding assay kit (Cisbio, 63ADKOOOCB16PEG).
The experimental procedures were as follows (refer to the kit instructions for details): the compounds of the present invention were each firstly dissolved in DMSO at a concentration of 20 mM, and then diluted in an equal gradient with a buffer in the kit, so that the final concentrations of the test compounds in the reaction system were in a range of 10000 nM-0.04 nM, and the final concentration of DMSO was 0.5%. 2 μL of the compounds were each incubated with 4 μL of 1×Tag1-SOS1, 4 μL of 1×Tag2-KRAS-G12C (containing 10 μM guanosine triphosphate, GTP) at 25° C. for 15 min. Then 5 μL of 1× Anti-Tag1-Tb3+ and 5 μL of 1× Anti-Tag2-XL665 were added to the reaction system, and the mixture was incubated on ice for 3 h. After the incubation, the fluorescence intensity of each well was measured at the excitation wavelength of 337 nm, the fluorescence intensity of each well was read at the emission wavelengths of 620 nm and 665 nm on a microplate reader EnVision (PerkinElmer, 2105) in an HTRF mode, and the Ratio value was calculated by the formula Ratio=(665 nm/620 nm)×[…]. The inhibition rates of the compounds at each concentration were calculated by comparing the fluorescence intensity ratio with that of the control group, and then nonlinear curve fitting was performed by GraphPad Prism 8 in the logarithmic concentration-inhibition rate to obtain the IC50 values of the compounds, as shown in Table 1.

[2] = target: T2, SOS1 protein (Homo sapiens, UniProt Q07889); test: SOS1 degradation assay (Western blot), NCI-H358 cells; type: cell-based; parameters: The degradation of SOS1 by the compounds was investigated on KRAS G12C mutant human non-small cell lung cancer cells NCI-H358; host or cells: NCI-H358 (human cancer cell lines); settings: SOS1 degradation, NCI-H358 cells, 24 h, Western blot; for DC50: read-out: NCI-H358 (G12C) DC50; for Dmax: read-out: NCI-H358 (G12C) Dmax
T2 sequence (Q07889 1-1333): T1 sequence (Q07889 1-1333)
Outline: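 SOS1 degradation was assessed by densitometry of Western blots, relative to untreated controls, after 24 h compound exposure (0.03–3000 nM final, 37 °C, 5% CO2) of cells seeded at 5×10^5/well. Log concentration–response fitting gave DC50 and Dmax.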

IC50 [1] [nM]	DC50 [2] [nM]	Dmax [2] [%]	Compound
≤ 15	< 50	50 to 80	COc1cc2nc(C)nc(N[C@H](C)c3cc(-c4c(Cl)cccc4CN(C)C)cs3)c2cc1[C@H]1CC[C@H](C(=O)N2CCN(CCCOC3CCN(C(=O)c4ccc(Cl)c(N5CCC(=O)NC5=O)c4)CC3)CC2)CC1 [Example 68, 1-(2-chloro-5-(4-(3-(4-((1R,4R)-4-(4-(((R)-1-(4-(2-chloro-6-((dimethylamino)methyl)phenyl)thien-2-yl)ethyl)amino)-7-methoxy-2-methylquinazolin-6-yl)cyclohexane-1-carbonyl)piperazin-1-yl)propoxy)piperidine-1-carbonyl)phenyl)dihydropyrimidine-2,4(1H,3H)-dione]
≤ 15	–	–	COc1cc2nc(C)nc(N[C@H](C)c3cccc4c3CCS4(=O)=O)c2cc1[C@H]1CC[C@H](C(=O)N2CCC(CCOCC3CCN(C(=O)c4ccc(C(F)(F)F)c(N5CCC(=O)NC5=O)c4)CC3)CC2)CC1 [Example 66, 1-(5-(4-((2-(1-((1R,4R)-4-(4-(((R)-1-(1,1-dioxido-2,3-dihydrobenzo[b]thiophen-4-yl)ethyl)amino)-7-methoxy-2-methylquinazolin-6-yl)cyclohexane-1-carbonyl)piperidin-4-yl)ethoxy)methyl)piperidine-1-carbonyl)-2-(trifluoromethyl)phenyl)dihydropyrimidine-2,4(1H,3H)-dione]
≤ 15	< 50	50 to 80	COc1cc2nc(C)nc(N[C@H](C)c3cc(-c4c(Cl)cccc4CN(C)C)cs3)c2cc1[C@H]1CC[C@H](C(=O)N2CCN(CC3CCC4(CC3)CCN(C(=O)c3ccc(F)c(N5CCC(=O)NC5=O)c3)CC4)CC2)CC1 [Example 60, 1-(5-(9-((4-((1R,4R)-4-(4-(((R)-1-(4-(2-chloro-6-((dimethylamino)methyl)phenyl)thien-2-yl)ethyl)amino)-7-methoxy-2-methylquinazolin-6-yl)cyclohexane-1-carbonyl)piperazin-1-yl)methyl)-3-azaspiro[5.5]undecane-3-carbonyl)-2-fluorophenyl)dihydropyrimidine-2,4(1H,3H)-dione]
≤ 15	100 to 500	50 to 80	[2H]C1([2H])CC(OCC2CCN(C(=O)[C@H]3CC[C@H](c4cc5c(N[C@H](C)c6cc(N)cc(C(F)(F)F)c6)nc(C)nc5cc4OC)CC3)CC2)CC([2H])([2H])N1C(=O)c1ccc(Cl)c(N2CCC(=O)NC2=O)c1 [Example 45, 1-(5-(4-((1-((1R,4R)-4-(4-(((R)-1-(3-amino-5-(trifluoromethyl)phenyl)ethyl)amino)-7-methoxy-2-methylquinazolin-6-yl)cyclohexane-1-carbonyl)piperidin-4-yl)methoxy)piperidine-1-carbonyl-2,2,6,6-d4)-2-chlorophenyl)dihydropyrimidine-2,4(1H,3H)-dione]
≤ 15	< 50	80 to 100	COc1cc2nc(C)nc(N[C@H](C)c3cc(-c4c(Cl)cccc4CN(C)C)cs3)c2cc1[C@H]1CC[C@H](C(=O)N2CCN(CCC3CCC4(CC3)CCN(C(=O)c3ccc(Cl)c(N5CCC(=O)NC5=O)c3)CC4)CC2)CC1 [Example 62, 1-(2-chloro-5-(9-(2-(4-((1R,4R)-4-(4-(((R)-1-(4-(2-chloro-6-((dimethylamino)methyl)phenyl)thien-2-yl)ethyl)amino)-7-methoxy-2-methylquinazolin-6-yl)cyclohexane-1-carbonyl)piperazin-1-yl)ethyl)-3-azaspiro[5.5]undecane-3-carbonyl)phenyl)dihydropyrimidine-2,4(1H,3H)-dione]
≤ 15	100 to 500	50 to 80	COc1cc2nc(C)nc(N[C@H](C)c3cc(-c4c(Cl)cccc4CN(C)C)cs3)c2cc1[C@H]1CC[C@H](C(=O)N2CCN(CC3CCC4(CC3)CCN(C(=O)c3ccc(C5CCC(=O)NC5=O)cc3)CC4)CC2)CC1 (stereo partly drawn) [Example 52, 3-(4-(9-((4-((1R,4R)-4-(4-(((R)-1-(4-(2-chloro-6-((dimethylamino)methyl)phenyl)thien-2-yl)ethyl)amino)-7-methoxy-2-methylquinazolin-6-yl)cyclohexane-1-carbonyl)piperazin-1-yl)methyl)-3-azaspiro[5.5]undecane-3-carbonyl)phenyl)piperidine-2,6-dione]
≤ 15	< 50	80 to 100	CNCc1ccccc1-c1csc([C@@H](C)Nc2nc(C)nc3cc(OC)c([C@H]4CC[C@H](C(=O)N5CCN(CCC6CCC7(CC6)CCN(C(=O)c6ccc(Cl)c(N8CCC(=O)NC8=O)c6)CC7)CC5)CC4)cc23)c1 [Example 50]
≤ 15	–	–	COc1cc2nc(C)nc(N[C@H](C)c3cccc4c3CCS4(=O)=O)c2cc1[C@H]1CC[C@H](C(=O)N2CCC(CCOCC3CCN(C(=O)c4ccc(Cl)c(N5CCC(=O)NC5=O)c4)CC3)CC2)CC1 [Example 55, 1-(2-chloro-5-(4-((2-(1-((1R,4R)-4-(4-(((R)-1-(1,1-dioxido-2,3-dihydrobenzo[b]thiophen-4-yl)ethyl)amino)-7-methoxy-2-methylquinazolin-6-yl)cyclohexane-1-carbonyl)piperidin-4-yl)ethoxy)methyl)piperidine-1-carbonyl)phenyl)dihydropyrimidine-2,4(1H,3H)-dione]
≤ 15	–	–	COc1cc2nc(C)nc(N[C@H](C)c3cc(-c4c(Cl)cccc4CN(C)C)cs3)c2cc1[C@H]1CC[C@H](C(=O)N2CCC(CCOCC3CCN(C(=O)c4ccc(OC(F)(F)F)c(N5CCC(=O)NC5=O)c4)CC3)CC2)CC1 [Example 58, 1-(5-(4-((2-(1-((1R,4R)-4-(4-(((R)-1-(4-(2-chloro-6-((dimethylamino)methyl)phenyl)thien-2-yl)ethyl)amino)-7-methoxy-2-methylquinazolin-6-yl)cyclohexane-1-carbonyl)piperidin-4-yl)ethoxy)methyl)piperidine-1-carbonyl)-2-(trifluoromethoxy)phenyl)dihydropyrimidine-2,4(1H,3H)-dione]

From patent US20240261417A1, “SOS1 DEGRADING AGENT AND PREPARATION METHOD THEREFOR AND APPLICATION THEREOF” (SHANGHAI LEADINGTAC PHARMACEUTICAL CO. LTD., priority 2021, published 2024)
